Measured values: US20020177594A1, “Inhibitors of histone deacetylase” (priority 2001, published 2002)

SMILES	melting point [°C]
O=C(NCCCCCC(=O)C(F)(F)F)OCC1c2ccccc2-c2ccccc21 [Example 89, 9H-fluoren-9-ylmethyl 7,7,7-trifluoro-6-oxoheptylcarbamate]	83 to 88
O=C(CCCCCCSc1ccccc1)c1ncco1 [Example 102, 1-(1,3-oxazol-2-yl)-7-(phenylsulfanyl)-1-heptanone]	39 to 40
O=C(CCCCCCS(=O)(=O)c1ccccc1)c1ncco1 [Example 103, 1-(1,3-oxazol-2-yl)-7-(phenylsulfonyl)-1-heptanone]	55 to 56
O=C(CCCCCCSc1ccc2ccccc2c1)c1ncco1 [Example 104, 7-(2-naphthylsulfanyl)-1-(1,3-oxazol-2-yl)-1-heptanone]	65 to 66
O=C(CCCCCCS(=O)(=O)c1ccc2ccccc2c1)c1ncco1 [Example 105, 7-(2-naphthylsulfonyl)-1-(1,3-oxazol-2-yl)-1-heptanone]	75 to 76
CNC(=O)C(=O)CCCCCCSc1ccc2ccccc2c1 [Example 106, N-methyl-8-(2-naphthylsulfanyl)-2-oxooctanamide]	94 to 95
CNC(=O)C(=O)CCCCCCS(=O)(=O)c1ccc2ccccc2c1 [Example 107, N-methyl-8-(2-naphthylsulfonyl)-2-oxooctanamide]	108 to 109
CNC(=O)C(=O)CCCCCCSc1ccc(-c2ccccc2)cc1 [Example 108, 8-((1,1′-biphenyl)-4-ylsulfanyl)-N-methyl-2-oxooctanamide]	131 to 132

Further lines, results first:

melting point [°C]	SMILES
153 to 156	O=C(NCCCCCCC(=O)c1ncco1)c1cc2ccccc2[nH]1 [Example 110, N-(7-(1,3-oxazol-2-yl)-7-oxoheptyl)-1H-indole-2-carboxamide]
176 to 179	O=C(NCCCCCC(=O)c1ncco1)c1cc2ccccc2[nH]1 [Example 111, N-(6-(1,3-oxazol-2-yl)-6-oxohexyl)-1H-indole-2-carboxamide]
110 to 111	CC(=O)C(=O)CCCCCCOc1ccc(-c2ccccc2)cc1 [Example 113, 9-((1,1′-biphenyl)-4-yloxy)-2,3-nonanedione]
107 to 108	CNC(=O)C(=O)CCCCCCSc1nc(-c2ccccc2)cs1 [Example 183, N-methyl-2-oxo-8-((4-phenyl-1,3-thiazol-2-yl)thio)octanamide]
83 to 84	CNC(=O)C(=O)CCCCCCSc1nc2ccccc2s1 [Example 184, 8-(1,3-benzothiazol-2-ylthio)-N-methyl-2-oxooctanamide]
70 to 72	CNC(=O)C(=O)CCCCCCc1csc(-c2ccccc2)n1 [Example 196, N-methyl-2-oxo-8-(2-phenyl-1,3-thiazol-4-yl)octanamide]
86 to 87	CNC(=O)C(=O)CCCCCO/N=C/c1ccc(-c2ccccc2)cc1 [Example 198, 7-((((1E)-1,1′-biphenyl-4-ylmethylidene)amino)oxy)-N-methyl-2-oxoheptanamide]
78 to 80	CNC(=O)C(=O)CCCCCCc1cnc(-c2ccccc2)o1 [Example 199, N-methyl-2-oxo-8-(2-phenyl-1,3-oxazol-5-yl)octanamide]
90 to 92	CNC(=O)C(=O)CCCCCCc1cnc(-c2ccc(Br)cc2)o1 [Example 217, 8-(2-(4-bromophenyl)-1,3-oxazol-5-yl)-N-methyl-2-oxooctanamide]
77 to 81	CNC(=O)C(=O)CCCCCCc1csc(-c2ccc(Cl)cc2)n1 [Example 218, 8-(2-(4-chlorophenyl)-1,3-thiazol-4-yl)-N-methyl-2-oxooctanamide]
